Earlier results, collected in patent publication US7141532B2, “Process for the preparation of a dry pesticidal composition containing a dicarboxylate component” (Monsanto Technology LLC, priority 2002, dated 2006).

Compound: O=C(O)C(=O)O [Oxalic acid]
- pK1 (first proton): about 1.25
- pK2 (second proton): about 4.29
